The subject of test [1] is influenza A virus (A/PR/8/34 strain).
Test [2] shares this test system. The format is cell-based. Particulars: read-out: Inhibiting Activity Cell Fusion (IC50).
Test [3] shares this test system. It counts as cell-based. Particulars: read-out: Inhibiting Activity Infection (IC50).

Where two headings read alike, the source gives them in different places.

In the case of “Pentenyl(5-acetamido-3,5-dideoxy-D-glycero-α-D-galacto-2-nonulopyranosylic Acid)-O-β-D-galactopyranosyl-(1→4)-O-β-D-glucopyranoside [vii]”, the “Inhibiting Activity Erythrocyte Aggregation” value in test [1] came to 133.3 µM. Moreover, the IC50 – broadly, the concentration that gives 50% inhibition – in test [2] is 745 µM; in test [3], 124 µM.

These data come from US20040040554A1 (priority 2000, published 2004).
